Data set [1] relates to human non-small cell lung cancer cells A549. The experiment in a line: MTT in-vitro anti-tumor activity test, A549.
Description: (§1) Experimental Materials Human non-small cell lung cancer cells A549, mouse breast cancer cells 4T-1 and mouse melanoma B16-BL6 were purchased from American Type Current Collection (ATCC, Rockville, MD, USA). An RPMI-1640 culture solution containing 10% of fetal calf serum and 2% of glutamine was inoculated with the A549, 4T-1 and B16-BL6 cells, and the cells were incubated at 37° C. in a 5% CO2 incubator.
(§2) The compounds were dissolved in DMSO under a sterile condition, and the obtained solutions were diluted to required concentrations by using an RPMI 1640 culture solution, wherein the final concentration of the DMSO was less than 0.5%.
(§3) A549, 4T-1 and B16-BL6 were used as adherent cells, adherent tumor cells in a logarithmic phase were selected, digested with pancreatin, and then prepared into a cell suspension of 5×10^4/ml with a culture medium containing 10% of calf serum, a 96-well culture plate was inoculated with the cell suspension, wherein each well contained 100 μl of the cell suspension, and incubation was carried out for 24 h at 37° C. and 5% CO2. Replacing was carried out with a new culture solution containing the samples to be detected of different concentrations in the experimental groups, replacing was carried out with a culture solution containing a same volume of solvent in the control group, three parallel wells were set in each group, and incubation was carried out for 48 hours at 37° C. and 5% CO2. The supernate was discarded, careful washing was carried out with PBS twice, 100 μl of a freshly prepared culture medium containing 0.5 mg/ml of MTT was added into each well, and incubation was continued to be carried out at 37° C. for 4 h. The supernatant was carefully discarded, 150 μl of DMSO was added, uniform mixing was carried out for 10 min by using a micro oscillator, and the optical density value was measured at 492 nm by using a microplate reader.
(§4) Tumor cell growth inhibition ratio (%)=[A492 (negative control)−A492 (dosing group)]/A492 (negative control)×100%
(§5) The median inhibitory concentration (IC50) of the sample is calculated.
Data set [2] has as its system mouse melanoma B16-BL6 cells. The experiment in a line: cells. In kind it is cell-based. The text has this: MTT reduction method is used.
The test system of data set [3] is mouse breast cancer 4T1 cells. In words: MTT in-vitro anti-tumor activity test, 4T1. The following applies: read-out: IC50 cytotoxic effect on 4T1.
Description: as §1, §2, §3, §4, §5
Data set [4] deals with SelH (Homo sapiens, UniProt Q8IZQ5, U44C). In words: Surface plasmon resonance (SPR) detection of affinity between compounds and SelH. In kind it is binding. As to conditions: for binding activity to the SelH (in words): ranking within the table's compounds. The text has this: A Cys-deficient Escherichia coli expression system was adopted, which is an effective method to prepare selenoprotein found in recent years. Itsbasic principle is as follows: the characteristic that Cys transfer RNA (tRNACys) can bind to Sec was utilized, and a culture medium which is lack of cysteine (Cys) and rich in Selenium cysteine (Sec) was used for culturing a strain, so that Sec was successfully incorporated into newly expressed protein. According to existing literature reports, a human SelH gene sequence was obtained. Selenocysteine of the SelH is in the middle of the sequence and was terminated here during prokaryotic expression, so that the selenocysteine was mutated from a triple codon TGA of the selenocysteine into TGC, which was synthesized by the Sangon Bioengineering (Shanghai) Co., Ltd. In addition, the adopted SPP system was a single protein production system, and a principle of the SPP system was to induce MazF enzyme (mRNA interfering enzyme for cutting RNA on an ACA nucleotide sequence) to cause growth arrest of thalli. The enzyme can specifically recognize and cut the ACA sequence and prevent synthesis of other background proteins in bacteria. Therefore, when mRNA of the desired target protein was encoded, if the mRNA can be designed into a form lacking an ACA base triplet according to an amino acid encoding rule and was induced at 15° C. by using a pCold vector in cells expressing MazF, the mRNA was not enzymatically hydrolyzed, only a protein derived from the mRNA was generated, and there was little synthesis of other cell proteins.
A pColdI-selH plasmid was transformed into BL21 (DE3) Cys-deficient Escherichia coli, so as to obtain a defective expression bacterium pColdI-selH. Sec was added during culture, making it become selenium-containing protein. The target protein was purified by using Ni^2+ column chelating chromatography, and impure protein was eluted by using an imidazole eluent of different concentrations to finally obtain the target protein. Soluble SelH protein was finally obtained, and SDS-PAGE (sodium dodecyl sulfate polyacrylamide gel electrophoresis) analysis was carried out.
A surface plasmon resonance (SPR) method was adopted to detect the interaction condition of a small molecule and a protein, so that the screening of drugs targeting SelH was carried out.
Purified SelH was diluted into a 50 μg/mL protein solution by using 10 mM sodium acetate with a pH value of 5.5, the purified SelH was fixed onto a CM5 chip by an amino coupling method by using Biacore 8K (GE Healthcard, Sweden), and an RU value was recorded.
An isopentenyl or isovaleryl substituted coumarin compound, or a triterpenoid compound with an isopentenyl-like structure (the compound specifically includes aurapten, protopanaxadiol, iso-imperatorin, decursin, osthol, notoginsenoside R1 and shionon) was dissolved in 100% DMSO to be prepared into solutions containing 5% DMSO of different concentrations (0, 31.25, 62.5, 125, 250 and 500 μM) by using a 1.05×PBS-P^+ buffer solution (GE Healthcare, obtained by diluting 10×PBS-P^+).
A single-cycle kinetics method was adopted, the 1.05×PBS-P^+ buffer solution containing 5% DMSO was used as a Running Buffer, different compounds of different concentrations flowed through the SelH fixed onto the chip, wherein the binding time was 120 s, and the change condition of the RU value was recorded. An equilibrium dissociation constant (KD) was calculated by using software in Biacore 8K so as to evaluate the binding affinity between the protein and the compounds. The SPR detection result of the affinity between compounds and SelH in Embodiment 2 of the present disclosure is as shown in FIG. 1A-G, and the result statistics is as shown in Table 1.
(1) Screening of small molecule drugs by taking SelH as a target A surface plasmon resonance (SPR) method was adopted to detect the interaction condition of a small molecule and a protein, so that the screening of drugs targeting SelH was carried out. […]

Data set [5] concerns human non-small cell lung cancer cells A549.
Description: as §1, §2, §3, §4, §5
For data set [6], the system named is mouse breast cancer 4T1 cells.
Description: as §1, §2, §3, §4, §5
Where [7] appears, read: read-out: IC50 cytotoxic effect on A549, MTT, 48 hours, Table 1.
Where [8] appears, read: read-out: IC50 cytotoxic effect on B16-BL6, MTT, 48 hours, Table 1.
Setting [9] is: SPR Biacore 8K, single-cycle kinetics, Table 1, read-out: Dissociation constant KD of compounds and SelH.
The mark [10] stands for this setting: Mus musculus, B16-BL6, 48 h, read-out: IC50 cytotoxic effect on B16-BL6.
Where [11] appears, read: Homo sapiens, A549, 48 h, read-out: A549 IC50 cytotoxicity.
Setting [12] is: SPR Biacore 8K, single-cycle kinetics, Table 3, read-out: KD binding of macrolides and cyclic peptides to SelH.
The mark [13] stands for this setting: Homo sapiens, A549, 48 h, read-out: IC50 cytotoxic effect on A549.
The mark [14] stands for this setting: Mus musculus, B16-BL6, read-out: IC50 cytotoxic effect on B16-BL6, MTT, 48 hours, Table 1.
Setting [15] is: SPR Biacore 8K, single-cycle kinetics, Table 2, read-out: Dissociation constant KD of compounds and SelH.

Like-named read-outs stand apart in the source and are kept apart here.

Usually IC50 stands for the concentration at which inhibition is half-maximal. Usually Kd stands for a measure of binding affinity in units of concentration. In the case of `CC(C)=CCCC(C)(O)[C@H]1CC[C@]2(C)[C@@H]1[C@H](O)C[C@@H]1[C@@]3(C)CC[C@H](O)C(C)(C)[C@@H]3CC[C@]12C` (stereo in doubt) [Protopanaxadiol, protopanoxadiol], the IC50 in data set [1] (setting [7]) was 54.4 µM; in data set [2] (setting [8]), 58 µM; in data set [3] (MTT, 48 hours) it was 30.9 µM. Also, the Kd in data set [4] (setting [9]) came out at 6.71e-05 µM. The “binding activity to the SelH (in words)” value in data set [4] is “strongest”.

Turning to `CC(=O)O[C@H](CC=C(C)C)C1=CC(=O)c2c(O)ccc(O)c2C1=O` [Acetyl Shikonin, acetyl shikonin], in data set [2] (setting [10]), the IC50 is 4.44 µM. In data set [4], the Kd stood at 0.000464 µM and the “binding activity to the SelH (in words)” value is on record as “strongest”.

Turning to `CC(C)=CCC/C(C)=C/COc1ccc2ccc(=O)oc2c1` [Aurapten, aurapten], the IC50 was determined as 51.9 µM in data set [5], 61.9 µM in data set [2] and 37.7 µM in data set [6]. The Kd in data set [4] (setting [9]) was determined as 1.53e-05 µM.

With `CC[C@H]1OC(=O)[C@H](C)[C@@H](O[C@H]2C[C@@](C)(OC)[C@@H](O)[C@H](C)O2)[C@H](C)[C@@H](O[C@@H]2O[C@H](C)C[C@H](N(C)C)[C@H]2O)[C@](C)(O)C[C@@H](C)CN(C)[C@H](C)[C@@H](O)[C@]1(C)O` [Azithromycin, azithromycin], the IC50 in data set [1] (setting [11]) was 72.4 µg/mL. Also, in data set [4] (setting [12]), the Kd is 537 µM. In data set [4], the “binding activity to the SelH (in words)” value is listed as “weakest”.

In the case of `CO[C@@H]1[C@@H](O[C@@H]2O[C@H](C)[C@@H](O[C@H]3C[C@@](C)(O)[C@@H](OC(=O)CC(C)C)[C@H](C)O3)[C@H](N(C)C)[C@H]2O)[C@@H](CC=O)C[C@@H](C)C(=O)/C=C/[C@@H]2O[C@H]2C[C@@H](C)OC(=O)C[C@H]1OC(C)=O` [Carbomycin, carbomycin], the “A549 IC50 cytotoxicity” value in data set [5] was 11.79 µg/mL. Besides, the Kd in data set [4] (setting [12]) turned out to be 4.4 µM.

`CC(C)=CC(=O)O[C@H]1Cc2cc3ccc(=O)oc3cc2OC1(C)C` [Decursin, decursin]: the IC50 came to 60 µM in data set [1] (setting [13]); 67.8 µM in data set [2] (setting [14]); 38.2 µM in data set [3] (Mus musculus, 4T1, 48 h). Moreover, the Kd in data set [4] (setting [9]) turned out to be 0.00205 µM.

Consider `CC[C@H]1OC(=O)[C@H](C)[C@@H](O[C@H]2C[C@@](C)(OC)[C@@H](O)[C@H](C)O2)[C@H](C)[C@@H](O[C@@H]2O[C@H](C)C[C@H](N(C)C)[C@H]2O)[C@](C)(O)C[C@@H](C)C(=O)[C@H](C)[C@@H](O)[C@]1(C)O` [Erythromycin, erythromycin], for which the IC50 in data set [1] (setting [11]) stood at 230 µg/mL. The Kd in data set [4] (setting [12]) is 10.4 µM.

On to `CC(C)=CCOc1c2ccoc2cc2oc(=O)ccc12` [Iso-imperatorin, iso-imperatorin], for which the IC50 is 72.5 µM in data set [1] (setting [13]); 75.2 µM in data set [2] (setting [14]); 48.9 µM in data set [3] (Mus musculus, 4T1, 48 h). Also, in data set [4] (setting [9]), the Kd turned out to be 7.53e-05 µM. Further, the “binding activity to the SelH (in words)” value in data set [4] was “strongest”.

`COc1cc(O)c(CC=C(C)C)c2c1C(=O)CC(c1ccc(O)cc1)O2` (stereo not drawn) [Isoxanthohunol, isoxanthohunol] registered an IC50 in data set [2] of 29 µM. Besides, the Kd in data set [4] (setting [15]) was 2.43 µM.

On to `CC(C)=CCc1c(-c2ccc(O)cc2O)oc2c3c(cc(O)c2c1=O)OC(C)(C)C=C3` [Morusin, morusin], for which the IC50 in data set [2] (Mus musculus, B16-BL6, read-out: IC50 cytotoxic effect on B16-BL6, MTT, 48 hours, Table 2) was found to be 37.9 µM. In addition, the Kd in data set [4] (setting [15]) was determined as 4030 µM. Further, the “binding activity to the SelH (in words)” value in data set [4] was “weakest”.

As for `CC(C)=CCC[C@](C)(O[C@@H]1O[C@H](CO)[C@@H](O)[C@H](O)[C@H]1O)[C@H]1CC[C@]2(C)[C@@H]1[C@H](O)C[C@@H]1[C@@]3(C)CC[C@H](O)C(C)(C)[C@@H]3[C@@H](O[C@@H]3O[C@H](CO)[C@@H](O)[C@H](O)[C@H]3O[C@@H]3OC[C@@H](O)[C@H](O)[C@H]3O)C[C@]12C` [Notoginsenoside R1, notoginsenoside R1], the IC50 in data set [5] came to 126 µM; in data set [2] (setting [8]) it was 111 µM; in data set [6], 100 µM. In data set [4] (setting [9]), the Kd was 563 µM. In data set [4], the “binding activity to the SelH (in words)” value is listed as “weakest”.

Take `COc1ccc2ccc(=O)oc2c1CC=C(C)C` [Osthol, osthol]: the IC50 in data set [1] (setting [7]) is 81.2 µM; in data set [2] (setting [8]) it was 100 µM; in data set [3] (MTT, 48 hours), 67.4 µM. In addition, the Kd in data set [4] (setting [9]) was determined as 0.0851 µM.

On to `CC(C)=CC[C@@H](O)C1=CC(=O)c2c(O)ccc(O)c2C1=O` [Shikonin, shikonin], for which the IC50 in data set [2] (setting [10]) came to 13 µM. This molecule also yielded a Kd in data set [4] of 5.42 µM.

Regarding `CC(C)=CCC[C@]1(C)CC[C@]2(C)[C@H]3CC[C@@]4(C)[C@@H](CCC(=O)[C@@H]4C)[C@]3(C)CC[C@@]2(C)C1` [Shionon, shionon], the IC50 is 92.7 µM in data set [1] (setting [7]); 93.9 µM in data set [2] (setting [8]); 82.4 µM in data set [3] (MTT, 48 hours). The dissociation constant Kd in data set [4] (setting [9]) is 0.00676 µM.

On to `CO[C@@H]1[C@@H](O[C@@H]2O[C@H](C)[C@@H](O[C@H]3C[C@@](C)(O)[C@@H](O)[C@H](C)O3)[C@H](N(C)C)[C@H]2O)[C@@H](CC=O)C[C@@H](C)[C@@H](O[C@H]2CC[C@H](N(C)C)[C@@H](C)O2)/C=C/C=C/C[C@@H](C)OC(=O)C[C@H]1O` [Spiramycin, spiramycin], for which, in data set [1] (MTT, 48 hours, Table 3), the “A549 IC50 cytotoxicity” value was 18.33 µg/mL. In addition, in data set [4] (setting [12]), the Kd turned out to be 4.38 µM.

With `C=C(NC(=O)C(=C)NC(=O)c1csc(C2=N[C@@H]3c4csc(n4)[C@H]4NC(=O)c5csc(n5)[C@H]([C@](C)(O)[C@@H](C)O)NC(=O)[C@H]5CSC(=N5)/C(=C/C)NC(=O)[C@H]([C@@H](C)O)NC(=O)c5csc(n5)[C@]3(CC2)NC(=O)[C@H](C)NC(=O)C(=C)NC(=O)[C@H](C)NC(=O)[C@H]([C@@H](C)CC)N[C@@H]2C=Cc3c([C@H](C)O)cc(nc3[C@H]2O)C(=O)O[C@@H]4C)n1)C(N)=O` [Thiostrepton, thiostrepton], the IC50 in data set [1] (setting [11]) is 9.66 µg/mL. Besides, the Kd in data set [4] (setting [12]) was found to be 19.9 µM.

With `COc1c(O)cc2oc3cc(O)c(CC=C(C)C)c(O)c3c(=O)c2c1CC=C(C)C` [α-mangostin], in data set [2] (read-out: IC50 cytotoxic effect on B16-BL6, MTT, 48 hours, Table 2), the IC50 came out at 40.2 µM. The Kd in data set [4] (setting [15]) was 398 µM.

These data come from patent publication US20240118263A1, “TARGET FOR SCREENING ANTI-TUMOR DRUG, USE THEREOF AND SCREENING METHOD THEREFOR” (SHENYANG FUYANG PHARMACEUTICAL TECHNOLOGY CO., LTD., priority 2019, published 2024).
